The target in one experiment is T1, human GIP receptor (Homo sapiens, UniProt P48546).
T1 construct: expressed in transfected cells; host or cells: BHK (parent line BHKTS13), clone BHK CRE luc2P hGIPR
T1 sequence (P48546 22-466): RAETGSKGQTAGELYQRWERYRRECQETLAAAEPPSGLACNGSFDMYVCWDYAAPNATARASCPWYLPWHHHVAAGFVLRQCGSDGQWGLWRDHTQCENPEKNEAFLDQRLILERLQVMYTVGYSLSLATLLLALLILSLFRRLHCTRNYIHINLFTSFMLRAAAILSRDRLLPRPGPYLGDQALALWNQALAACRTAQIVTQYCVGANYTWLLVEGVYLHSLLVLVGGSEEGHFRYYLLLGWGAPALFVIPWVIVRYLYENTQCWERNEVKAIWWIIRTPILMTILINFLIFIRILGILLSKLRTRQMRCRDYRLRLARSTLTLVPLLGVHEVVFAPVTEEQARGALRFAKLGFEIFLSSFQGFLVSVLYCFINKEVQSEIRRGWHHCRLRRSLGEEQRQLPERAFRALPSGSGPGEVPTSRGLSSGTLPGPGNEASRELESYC
In words: In vitro functional potency, CRE luciferase reporter, whole BHK cells (hGIPR). Type of experiment: cell-based. The following applies: BHK CRE luc2P hGIPR cells. The gist of the method: (§1)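 Potencies are replicate means (n≥2) from non-linear log(agonist) vs response fits of CRE-driven luminescence. Cells were overnight-plated BHK CRE luc2P lines transfected with human GIPR or GLP-1R, 5000/well.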

The next experiment addresses human GLP-1 receptor (Homo sapiens, UniProt P43220). As to the kind of experiment: In vitro functional potency, CRE luciferase reporter, whole BHK cells (hGLP-1R). Type of experiment: cell-based. Further details: expressed in transfected cells; host or cells: BHK (parent line BHKTS13), clone BHK CRE luc2P hGLP-1R. The following applies: BHK CRE luc2P hGLP-1R cells. The gist of the method: as §1
In general terms: In a reporter assay the amount or activity of a reporter protein is the signal.

Setting [1] is: 0% HSA, read-out: hGIPR, CRE Luc 0% HSA EC50.
Setting [2] is: hGIPR, CRE Luc 1% HSA EC50, 1% HSA.
[3] abbreviates: 0% HSA, read-out: hGLP-1R, CRE Luc 0% HSA EC50.
Setting [4] is: hGLP-1R, CRE Luc 1% HSA EC50, 1% HSA.

Read-outs that look alike come from different tables or passages of the source. Starred links: 1 amine or outer side, 2 acyl side, 3 side chain; linkers in the order of their positions; H or OH if unused. Non-standard residues stand in square brackets, D forms with d. Residues, ends and D or L forms follow the SMILES beside them. Groups on a side chain read outwards from the residue. *: point of attachment. C18 diacid = O=C(O)CCCCCCCCCCCCCCCCC(=O)*; C16 diacid = O=C(O)CCCCCCCCCCCCCCC(=O)*; γGlu = O=C(O)[C@H](CCC(=O)[*:2])N[*:1]; εLys = N[C@@H](CCCCN[*:1])C(=O)[*:2]; AEEA = NCCOCCOCC(=O)O; Aib = CC(C)(N)C(=O)O

Chain of human GLP-1 receptor (P43220 24-463): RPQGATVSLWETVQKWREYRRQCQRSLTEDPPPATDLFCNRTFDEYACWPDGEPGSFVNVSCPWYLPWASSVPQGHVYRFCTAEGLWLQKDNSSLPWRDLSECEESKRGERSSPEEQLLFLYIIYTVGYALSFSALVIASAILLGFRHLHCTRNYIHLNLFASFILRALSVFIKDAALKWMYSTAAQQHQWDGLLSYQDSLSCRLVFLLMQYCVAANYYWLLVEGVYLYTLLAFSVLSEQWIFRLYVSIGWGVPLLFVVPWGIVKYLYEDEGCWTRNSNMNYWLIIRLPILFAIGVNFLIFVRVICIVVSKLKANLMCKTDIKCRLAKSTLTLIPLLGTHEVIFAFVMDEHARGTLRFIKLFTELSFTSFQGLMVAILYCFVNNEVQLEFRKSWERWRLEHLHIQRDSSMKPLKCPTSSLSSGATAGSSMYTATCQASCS

A word on the EC50: it is the concentration needed to bring the measured effect to its halfway point. Take `CC[C@H](C)[C@H](NC(=O)[C@H](Cc1ccccc1)NC(=O)[C@H](CCC(=O)O)NC(=O)[C@H](CCCNC(=N)N)NC(=O)[C@H](C)NC(=O)[C@H](C)NC(=O)[C@H](CCC(N)=O)NC(=O)[C@H](CCC(=O)O)NC(=O)[C@H](CCC(=O)O)NC(=O)[C@H](CC(C)C)NC(=O)[C@H](CC(C)C)NC(=O)[C@@H](NC(=O)[C@H](CO)NC(=O)[C@H](Cc1ccc(O)cc1)NC(=O)[C@H](CC(=O)O)NC(=O)[C@H](CO)NC(=O)[C@@H](NC(=O)[C@H](Cc1ccccc1)NC(=O)[C@@H](NC(=O)CNC(=O)[C@H](CCC(=O)O)NC(=O)C(C)(C)NC(=O)[C@@H](N)Cc1ccc(O)cc1)[C@@H](C)O)[C@@H](C)O)[C@@H](C)CC)C(=O)N[C@@H](CCC(=O)O)C(=O)N[C@@H](Cc1c[nH]c2ccccc12)C(=O)N[C@@H](CC(C)C)C(=O)N[C@@H](CC(C)C)C(=O)N[C@@H](C)C(=O)NCC(=O)NCC(=O)N1CCC[C@H]1C(=O)N[C@@H](CO)C(=O)N[C@@H](CCCCNC(=O)COCCOCCNC(=O)COCCOCCNC(=O)CC[C@H](NC(=O)CCCCCCCCCCCCCCC(=O)O)C(=O)O)C(=O)NCC(=O)N[C@@H](C)C(=O)N1CCC[C@H]1C(=O)N1CCC[C@H]1C(=O)N1CCC[C@H]1C(=O)N[C@@H](CO)C(=O)O` [Compound 47] (H-Y[Aib]EGTFTSDYSILLEEQAAREFIEWLLAGGPSK([AEEA-AEEA-γGlu-C16 diacid])GAPPPS-OH): the 50% effective concentration (EC50) on human GIP receptor (setting [1]) is 0.0031 nM; at human GIP receptor (setting [2]), 0.156 nM; at human GLP-1 receptor (setting [3]) it was 0.0021 nM; on human GLP-1 receptor (setting [4]) it was 0.154 nM.

For the compound `CC[C@H](C)[C@H](NC(=O)[C@H](Cc1ccccc1)NC(=O)[C@H](CCC(=O)O)NC(=O)[C@H](CCCNC(=N)N)NC(=O)[C@H](C)NC(=O)[C@H](C)NC(=O)[C@H](CCC(N)=O)NC(=O)[C@H](CCCCNC(=O)[C@@H](N)CCCCNC(=O)[C@@H](N)CCCCNC(=O)CC[C@H](NC(=O)CCCCCCCCCCCCCCCCC(=O)O)C(=O)O)NC(=O)[C@H](CCC(=O)O)NC(=O)[C@H](CC(C)C)NC(=O)[C@H](CC(C)C)NC(=O)[C@@H](NC(=O)[C@H](CO)NC(=O)[C@H](Cc1ccc(O)cc1)NC(=O)[C@H](CC(=O)O)NC(=O)[C@H](CO)NC(=O)[C@@H](NC(=O)[C@H](Cc1ccccc1)NC(=O)[C@@H](NC(=O)CNC(=O)[C@H](CCC(=O)O)NC(=O)C(C)(C)NC(=O)[C@@H](N)Cc1ccc(O)cc1)[C@@H](C)O)[C@@H](C)O)[C@@H](C)CC)C(=O)N[C@@H](CC(N)=O)C(=O)N[C@@H](Cc1c[nH]c2ccccc12)C(=O)N[C@@H](CC(C)C)C(=O)N[C@@H](CC(C)C)C(=O)N[C@@H](C)C(=O)NCC(=O)O` [Compound 18] (H-Y[Aib]EGTFTSDYSILLEK([εLys-εLys-γGlu-C18 diacid])QAAREFINWLLAG-OH), the concentration for a half-maximal effect (EC50) on human GIP receptor (setting [1]) turned out to be 0.0209 nM; on human GIP receptor (setting [2]) it was 0.285 nM; on human GLP-1 receptor (setting [3]), 0.0197 nM; at human GLP-1 receptor (setting [4]) it was 0.226 nM.

On to `CC[C@H](C)[C@H](NC(=O)[C@H](Cc1ccccc1)NC(=O)[C@H](CCCCNC(=O)[C@@H](N)CCCCNC(=O)[C@@H](N)CCCCNC(=O)CC[C@H](NC(=O)CCCCCCCCCCCCCCCCC(=O)O)C(=O)O)NC(=O)[C@H](CCCNC(=N)N)NC(=O)[C@H](C)NC(=O)[C@H](C)NC(=O)[C@H](CCC(N)=O)NC(=O)[C@H](CCC(=O)O)NC(=O)[C@H](CCC(=O)O)NC(=O)[C@H](CC(C)C)NC(=O)[C@H](Cc1ccc(O)cc1)NC(=O)[C@@H](NC(=O)[C@H](CO)NC(=O)[C@H](Cc1ccc(O)cc1)NC(=O)[C@H](CC(=O)O)NC(=O)[C@H](CO)NC(=O)[C@@H](NC(=O)[C@H](Cc1ccccc1)NC(=O)[C@@H](NC(=O)CNC(=O)[C@H](CCC(=O)O)NC(=O)C(C)(C)NC(=O)[C@@H](N)Cc1ccc(O)cc1)[C@@H](C)O)[C@@H](C)O)[C@@H](C)CC)C(=O)N[C@@H](CC(N)=O)C(=O)N[C@@H](Cc1c[nH]c2ccccc12)C(=O)N[C@@H](CC(C)C)C(=O)N[C@@H](CC(C)C)C(=O)N[C@@H](C)C(=O)NCC(=O)NCC(=O)N1CCC[C@H]1C(=O)N[C@@H](CO)C(=O)N[C@@H](CO)C(=O)NCC(=O)N[C@@H](C)C(=O)N1CCC[C@H]1C(=O)N1CCC[C@H]1C(=O)N1CCC[C@H]1C(=O)N[C@@H](CO)C(=O)O` [Compound 37] (H-Y[Aib]EGTFTSDYSIYLEEQAARK([εLys-εLys-γGlu-C18 diacid])FINWLLAGGPSSGAPPPS-OH), for which the 50% effective concentration (EC50) was determined as 0.0112 nM on human GIP receptor (setting [1]), 0.298 nM at human GIP receptor (setting [2]), 0.0027 nM at human GLP-1 receptor (setting [3]) and 0.0946 nM on human GLP-1 receptor (setting [4]).

With `CC[C@H](C)[C@H](NC(=O)[C@H](Cc1ccccc1)NC(=O)[C@H](CCC(=O)O)NC(=O)[C@H](CCCNC(=N)N)NC(=O)[C@H](C)NC(=O)[C@H](C)NC(=O)[C@H](CCC(N)=O)NC(=O)[C@H](CCC(=O)O)NC(=O)[C@H](CCC(=O)O)NC(=O)[C@H](CC(C)C)NC(=O)[C@H](CC(C)C)NC(=O)[C@@H](NC(=O)[C@H](CO)NC(=O)[C@H](Cc1ccc(O)cc1)NC(=O)[C@H](CC(=O)O)NC(=O)[C@H](CO)NC(=O)[C@@H](NC(=O)[C@H](Cc1ccccc1)NC(=O)[C@@H](NC(=O)CNC(=O)[C@H](CCC(=O)O)NC(=O)C(C)(C)NC(=O)[C@@H](N)Cc1ccc(O)cc1)[C@@H](C)O)[C@@H](C)O)[C@@H](C)CC)C(=O)N[C@@H](CCC(=O)O)C(=O)N[C@@H](Cc1c[nH]c2ccccc12)C(=O)N[C@@H](CC(C)C)C(=O)N[C@@H](CC(C)C)C(=O)N[C@@H](C)C(=O)NCC(=O)NCC(=O)N1CCC[C@H]1C(=O)N[C@@H](CO)C(=O)N[C@@H](CCCCNC(=O)COCCOCCNC(=O)COCCOCCNC(=O)CC[C@H](NC(=O)CCCCCCCCCCCCCCCCC(=O)O)C(=O)O)C(=O)NCC(=O)N[C@@H](C)C(=O)N1CCC[C@H]1C(=O)N1CCC[C@H]1C(=O)N1CCC[C@H]1C(=O)N[C@@H](CO)C(=O)O` [Compound 45] (H-Y[Aib]EGTFTSDYSILLEEQAAREFIEWLLAGGPSK([AEEA-AEEA-γGlu-C18 diacid])GAPPPS-OH), the EC50 is 0.0038 nM on human GIP receptor (setting [1]), 1.22 nM on human GIP receptor (setting [2]), 0.0039 nM on human GLP-1 receptor (setting [3]) and 1.58 nM on human GLP-1 receptor (setting [4]).

As for `CC[C@H](C)[C@H](NC(=O)[C@H](Cc1ccccc1)NC(=O)[C@H](CCC(=O)O)NC(=O)[C@H](CCCNC(=N)N)NC(=O)[C@H](C)NC(=O)[C@H](C)NC(=O)[C@H](CCC(N)=O)NC(=O)[C@H](CCCCNC(=O)[C@@H](N)CCCCNC(=O)[C@@H](N)CCCCNC(=O)CC[C@H](NC(=O)CCCCCCCCCCCCCCCCC(=O)O)C(=O)O)NC(=O)[C@H](CCC(=O)O)NC(=O)[C@H](CC(C)C)NC(=O)[C@@H](NC(=O)[C@@H](NC(=O)[C@H](CO)NC(=O)[C@H](Cc1ccc(O)cc1)NC(=O)[C@H](CC(=O)O)NC(=O)[C@H](CO)NC(=O)[C@@H](NC(=O)[C@H](Cc1ccccc1)NC(=O)[C@@H](NC(=O)CNC(=O)[C@H](CCC(=O)O)NC(=O)C(C)(C)NC(=O)[C@@H](N)Cc1ccc(O)cc1)[C@@H](C)O)[C@@H](C)O)[C@@H](C)CC)[C@@H](C)CC)C(=O)N[C@@H](CC(N)=O)C(=O)N[C@@H](Cc1c[nH]c2ccccc12)C(=O)N[C@@H](CC(C)C)C(=O)N[C@@H](CC(C)C)C(=O)N[C@@H](C)C(=O)NCC(=O)NCC(=O)N1CCC[C@H]1C(=O)N[C@@H](CO)C(=O)N[C@@H](CO)C(=O)NCC(=O)N[C@@H](C)C(=O)N1CCC[C@H]1C(=O)N1CCC[C@H]1C(=O)N1CCC[C@H]1C(=O)N[C@@H](CO)C(=O)O` [Compound 34] (H-Y[Aib]EGTFTSDYSIILEK([εLys-εLys-γGlu-C18 diacid])QAAREFINWLLAGGPSSGAPPPS-OH), the EC50 is 0.0083 nM at human GIP receptor (setting [1]), 0.213 nM on human GIP receptor (setting [2]), 0.006 nM at human GLP-1 receptor (setting [3]) and 0.186 nM at human GLP-1 receptor (setting [4]).

Regarding `CC[C@H](C)[C@H](NC(=O)[C@H](Cc1ccccc1)NC(=O)[C@H](CCC(=O)O)NC(=O)[C@H](CCCNC(=N)N)NC(=O)[C@H](C)NC(=O)[C@H](C)NC(=O)[C@H](CCC(N)=O)NC(=O)[C@H](CCC(=O)O)NC(=O)[C@H](CCC(=O)O)NC(=O)[C@H](CC(C)C)NC(=O)[C@H](Cc1ccc(O)cc1)NC(=O)[C@H](CCCCNC(=O)[C@@H](N)CCCCNC(=O)[C@@H](N)CCCCNC(=O)CC[C@H](NC(=O)CCCCCCCCCCCCCCCCC(=O)O)C(=O)O)NC(=O)[C@H](CO)NC(=O)[C@H](Cc1ccc(O)cc1)NC(=O)[C@H](CC(=O)O)NC(=O)[C@H](CO)NC(=O)[C@@H](NC(=O)[C@H](Cc1ccccc1)NC(=O)[C@@H](NC(=O)CNC(=O)[C@H](CCC(=O)O)NC(=O)C(C)(C)NC(=O)[C@@H](N)Cc1ccc(O)cc1)[C@@H](C)O)[C@@H](C)O)C(=O)N[C@@H](CC(N)=O)C(=O)N[C@@H](Cc1c[nH]c2ccccc12)C(=O)N[C@@H](CC(C)C)C(=O)N[C@@H](CC(C)C)C(=O)N[C@@H](C)C(=O)NCC(=O)NCC(=O)N1CCC[C@H]1C(=O)N[C@@H](CO)C(=O)N[C@@H](CO)C(=O)NCC(=O)N[C@@H](C)C(=O)N1CCC[C@H]1C(=O)N1CCC[C@H]1C(=O)N1CCC[C@H]1C(=O)N[C@@H](CO)C(=O)O` [Compound 41], the EC50 at human GIP receptor (setting [1]) turned out to be 0.0049 nM; on human GIP receptor (setting [2]), 0.0793 nM; on human GLP-1 receptor (setting [3]), 0.0012 nM; on human GLP-1 receptor (setting [4]), 0.0314 nM.

Values taken from patent US20220177538A1, “CO-AGONISTS AT GLP-1 AND GIP RECEPTORS SUITABLE FOR ORAL DELIVERY” (Novo Nordisk A/S, priority 2020, published 2022).
